From DBAASP
Converted amounts (≈) assume the structure as drawn.

What was measured:
Test in all cases: ≥ marks a high value that may be exact or a test limit, other limits are often not marked, values filed in µg/mL are converted to µM
[1] = test system: Escherichia coli ATCC 25922
[2] = test system: Enterobacter cloacae CGMCC 1.57
[3] = test system: Psychrobacter faecalis X29
[4] = test system: Candida glabrata 090902
[5] = test system: Nocardia asteroides 201118
[6] = test system: Enterococcus faecalis 981
[7] = test system: Enterococcus faecium 091299
[8] = test system: Klebsiella pneumoniae 08040724
[9] = test system: Staphylococcus aureus ATCC 25923
[10] = test system: Staphylococcus aureus ATCC 29213
[11] = test system: Bacillus subtilis CMCC 63501
[12] = test system: Salmonella enterica subsp. enterica serovar Typhimurium C77-31
[13] = test system: Enterococcus faecalis ATCC 29212
[14] = test system: Staphylococcus epidermidis ATCC 12228
[15] = test system: Pseudomonas aeruginosa ATCC 27853
[16] = test system: Salmonella enterica subsp. enterica serovar Pullorum C79-13
[17] = test system: Aspergillus niger ATCC 9142
[18] = test system: Candida krusei ATCC 28870
[19] = test system: Saccharomyces cerevisiae PTCC 5052
[20] = test system: Candida albicans ATCC 10231
[21] = test system: Trichophyton mentagrophytes ATCC 32510
[22] = test system: Candida glabrata ATCC 90030
[23] = test system: Microsporum canis PTCC 5069
[24] = test system: Aspergillus fumigatus ATCC 1022
[25] = test system: Cryptococcus neoformans ATCC 2517
[26] = test system: Bacillus subtilis ATCC 6051
[27] = test system: Aspergillus flavus ATCC 24109
[28] = test system: Staphylococcus aureus RN4220
[29] = test system: Salmonella enterica subsp. enterica serovar Typhimurium LT2
[30] = test system: Pseudomonas fluorescens NCIMB 9046
[31] = test system: Staphylococcus aureus Newman
[32] = test system: Cronobacter muytjensii ATCC 51329
[33] = test system: Cronobacter sakazakii ATCC BAA-894
[34] = test system: Staphylococcus aureus NCTC 8325-4
[35] = test system: Cronobacter sakazakii DPC 6440
[36] = test system: Escherichia coli NCIMB 11843
[37] = test system: Klebsiella pneumoniae NCIMB 13218
[38] = test system: Staphylococcus aureus RF122
[39] = test system: Staphylococcus aureus SA113
[40] = test system: Cronobacter sakazakii DSM 4485
[41] = test system: Escherichia coli ECO2
[42] = test system: Acinetobacter baumannii
[43] = test system: Pseudomonas aeruginosa PAER10
[44] = test system: Staphylococcus aureus
[45] = test system: Acinetobacter baumannii ABA2
[46] = test system: Salmonella enterica serovar Typhimurium
[47] = test system: Porphyromonas gingivalis ATCC 33277
[48] = test system: Escherichia coli ECO1
[49] = test system: Pseudomonas aeruginosa
[50] = test system: Staphylococcus aureus SAU5
[51] = test system: Staphylococcus aureus S5375
[52] = test system: Pseudomonas aeruginosa PAER1
[53] = test system: Escherichia coli
[54] = test system: Pseudomonas aeruginosa PAER4
[55] = test system: Pseudomonas aeruginosa PAO1
[56] = test system: Staphylococcus aureus SAU7
[57] = test system: Staphylococcus aureus SAU2
[58] = test system: Pseudomonas aeruginosa PAER7
[59] = test system: Acinetobacter baumannii ABA1

CC[C@H](C)[C@@H]1NC(=O)[C@H](CCCCN)NC(=O)[C@@H](NC(=O)[C@@H](NC(=O)[C@@H](NC(=O)[C@H](CCCCN)NC(=O)[C@@H]2CCCN2C(=O)[C@H](CC(C)C)NC(=O)[C@H](Cc2ccccc2)NC(=O)[C@H](CC(N)=O)NC(=O)[C@H](C)NC(=O)[C@H](C)NC(=O)[C@H](CC(C)C)NC(=O)CNC(=O)[C@H](C)NC(=O)[C@H](CC(C)C)NC(=O)[C@H](CCSC)NC(=O)[C@@H]2CCCN2C(=O)[C@H](CC(C)C)NC(=O)[C@@H](N)Cc2ccccc2)[C@@H](C)CC)[C@@H](C)CC)CSSC[C@@H](C(=O)O)NC(=O)[C@H](CCCCN)NC(=O)[C@H](CCCCN)NC(=O)[C@H]([C@@H](C)O)NC1=O [FLPMLAGLAANFLPKIICKITKKC]
MIC [1]: 100 µM (≈ 263 µg/mL) | MIC [2]: ≥ 100 µM | MIC [3]: 12.5 µM (≈ 32.9 µg/mL) | MIC [4]: 6.3 µM (≈ 16.6 µg/mL) | MIC [5]: 3.1 µM (≈ 8.16 µg/mL) | MIC [6]: 6.3 µM (≈ 16.6 µg/mL) | MIC [7]: ≥ 50 µM | MIC [8]: ≥ 100 µM | MIC [9]: 6.3 µM (≈ 16.6 µg/mL)

NC(=O)[C@H](Cc1ccccc1)NC(=O)[C@H](CCCN=C(N)N)NC(=O)[C@H](CS)NC(=O)[C@H](Cc1ccccc1)NC(=O)[C@H](CCCN=C(N)N)NC(=O)[C@H](CCCN=C(N)N)NC(=O)[C@H](CCCN=C(N)N)NC(=O)[C@H](CS)NC(=O)[C@H](CCCN=C(N)N)NC(=O)[C@@H](N)Cc1ccccc1 [FRCRRRFCRF]
MIC [1]: 4 µM (≈ 5.78 µg/mL) | MIC [10]: 32 µM (≈ 46.3 µg/mL) | MIC [11]: 4 µM (≈ 5.78 µg/mL) | MIC [12]: ≥ 32 µM | MIC [13]: 32 µM (≈ 46.3 µg/mL) | MIC [14]: 16 µM (≈ 23.1 µg/mL) | MIC [15]: > 128 µM | MIC [16]: 16 µM (≈ 23.1 µg/mL)

CC[C@H](C)[C@H](NC(=O)[C@H](CCCCN)NC(=O)[C@H](CCCCN)NC(=O)[C@@H](NC(=O)[C@@H](NC(=O)[C@H](CC(=O)O)NC(=O)[C@H](Cc1ccccc1)NC(=O)[C@H](CC(C)C)NC(=O)CN)[C@@H](C)CC)[C@@H](C)CC)C(=O)N[C@@H](C)C(=O)N[C@@H](CCC(=O)O)C(=O)N[C@@H](CO)C(=O)N[C@@H](Cc1ccccc1)C(=O)O [GLFDIIKKIAESF]
MIC [1]: 84.4 µM (≈ 125 µg/mL) | MIC [17]: ≥ 675 µM | MIC [18]: ≥ 338 µM | MIC [19]: ≥ 84.4 µM | MIC [20]: 84.4 µM (≈ 125 µg/mL) | MIC [21]: ≥ 675 µM | MIC [22]: ≥ 675 µM | MIC [23]: ≥ 675 µM | MIC [24]: ≥ 84.4 µM | MIC [13]: 84.4 µM (≈ 125 µg/mL) | MIC [25]: ≥ 675 µM | MIC [26]: ≥ 172 µM | MIC [27]: ≥ 675 µM | MIC [9]: > 675 µM | MIC [15]: > 675 µM

CC(C)C[C@H](NC(=O)[C@H](CCCN=C(N)N)NC(=O)[C@H](C)NC(=O)[C@H](CC(N)=O)NC(=O)[C@H](CCC(=O)O)NC(=O)[C@H](CC(N)=O)NC(=O)[C@H](CC(C)C)NC(=O)[C@@H](N)C(C)C)C(=O)O [VLNENARL]
MIC [28]: ≥ 1250 µM | MIC [29]: ≥ 1250 µM | MIC [30]: ≥ 1250 µM | MIC [31]: ≥ 1250 µM | MIC [32]: ≥ 1250 µM | MIC [33]: ≥ 1250 µM | MIC [34]: ≥ 1250 µM | MIC [35]: ≥ 1250 µM | MIC [36]: ≥ 1250 µM | MIC [37]: ≥ 1250 µM | MIC [38]: ≥ 1250 µM | MIC [39]: ≥ 625 µM | MIC [40]: ≥ 1250 µM

CC[C@H](C)[C@H](NC(=O)[C@H](CCCN=C(N)N)NC(=O)[C@H](Cc1c[nH]c2ccccc12)NC(=O)[C@H](CCC(N)=O)NC(=O)[C@@H](N)C(C)C)C(=O)N[C@@H](CCCN=C(N)N)C(=O)N[C@H](C(=O)N[C@@H](C)C(=O)N[C@H](C(=O)N[C@H](C(=O)N[C@@H](CCCN=C(N)N)C(=O)N[C@@H](CCCCN)C(=O)O)[C@@H](C)CC)C(C)C)C(C)C [VQWRIRVAVIRK]
MIC [1]: 10.5 µM (≈ 16 µg/mL) | MIC [41]: 3.71 µM (≈ 5.66 µg/mL) | MIC [42]: 10.5 µM (≈ 16 µg/mL) | MIC [43]: 2.62 µM (≈ 4 µg/mL) | MIC [44]: 14.8 µM (≈ 22.6 µg/mL) | MIC [45]: 7.42 µM (≈ 11.3 µg/mL) | MIC [46]: 5.25 µM (≈ 8 µg/mL) | MIC [47]: 5.25 µM (≈ 8 µg/mL) | MIC [48]: 3.71 µM (≈ 5.66 µg/mL) | MIC [49]: 10.5 µM (≈ 16 µg/mL) | MIC [50]: 21 µM (≈ 32 µg/mL) | MIC [51]: 14.8 µM (≈ 22.6 µg/mL) | MIC [52]: 3.71 µM (≈ 5.66 µg/mL) | MIC [53]: 42 µM (≈ 64 µg/mL) | MIC [54]: 10.5 µM (≈ 16 µg/mL) | MIC [55]: 10.5 µM (≈ 16 µg/mL) | MIC [9]: 10.5 µM (≈ 16 µg/mL) | MIC [56]: 21 µM (≈ 32 µg/mL) | MIC [57]: 21 µM (≈ 32 µg/mL) | MIC [58]: 21 µM (≈ 32 µg/mL) | MIC [59]: 5.25 µM (≈ 8 µg/mL)
